Like-named read-outs stand apart in the source and are kept apart here.
Key:
[1] = tested on: B16-F10 (murine melanoma)
Experimental: (§1) BU-3983T was tested for in vitro cytotoxicity against murine and human cell lines and for in vivo antitumor activity in mice. B16-F10 (murine melanoma) and Moser (human colorectal carcinoma) cells were grown to the logarithmic phase in the enriched Eagle minimum essential medium supplemented with fetal calf serum (FCS, 10%) and kanamycin (60 µg/ml), and HCT-116 (human colon carcinoma) were in McCoy's 5A medium supplemented with FCS (10%), penicillin (100 U/ml) and streptomycin (100 µg/ml). B16-F10, Moser and HCT-116 cells were harvested and implanted into wells of a 96-well microtiter plate at the inoculum sizes of 1.5 x 10⁴, 3 x 10⁴ and 3 x 10⁴ cells/ml, respectively. They were incubated with test materials at 37°C in humidified atmosphere of 5% CO₂ and 95% air for 72 hours. The cytotoxicity against tumor cells was determined colorimetrically at 540 nm after staining viable cells.

[2] = tested on: HCT-116 (human colon carcinoma); conditions: HCT-116 cells, 72 hours
Experimental: as §1

[3] = tested on: Moser (human colorectal carcinoma); conditions: Moser cells, 72 hours
Experimental: as §1

[4] = tested on: DNA synthesis in B16-F10 melanoma cells; assay: Inhibition of macromolecule synthesis: DNA (3H-thymidine incorporation); format: cell-based, murine; conditions: 4.5 hours + 30 minutes label
Experimental: (§3) B16-F10 cells (10⁵ cells/ml) were incubated with test materials at 37°C for 4.5 hours (for DNA synthesis) or 4 hours (for RNA and protein syntheses). Labelled precursor, ³H-thymidine, ¹⁴C-uridine or ³H-leucine was added to the culture and further incubated for 30 minutes (for DNA) or 60 minutes (for RNA and protein). After washing with chilled 5% trichloroacetic acid solution, the radioactivity incorporated into the acid-insoluble fraction of the tumor cells was determined by a liquid scintillation counter. Actinomycin D was used as a reference compound.

[5] = tested on: RNA synthesis in B16-F10 melanoma cells; assay: Inhibition of macromolecule synthesis: RNA (14C-uridine incorporation); format: cell-based, murine; conditions: 4 hours + 60 minutes label
Experimental: as §3

[6] = tested on: Protein synthesis in B16-F10 melanoma cells; assay: Inhibition of macromolecule synthesis: protein (3H-leucine incorporation); format: cell-based, murine
Experimental: as §3

[7] = tested on: B16 melanoma; assay: In vivo antitumor activity in tumor-bearing mice, B16 melanoma (ip); conditions: for Body weight change on day 5 / MST (Median survival time) / T/C: B16 melanoma ip, BDF₁ mice; for T/C: significant if T/C ≧ 125%
Experimental: (§2) In vivo antitumor activity of BU-3983T was examined using tumor-bearing mice. Male BDF₁ mice were intraperitoneally inoculated with 0.5 ml of 10% melanotic melanoma B16 brei, and female CDF₁ mice were intraperitoneally inoculated with 0.4 ml of diluted ascitic fluid containing 10⁶ lymphocytic leukemia P388 cells or 10⁵ lymphoid leukemia L1210 cells. Mitomycin C was used as a reference compound. Test compounds were intraperitoneally administered to the mice by the following treatment schedules: once a day on day 1 only (Q1D x 1), on days 1, 5 and 9 (Q4D x 3) or on days 1 to 9 (Q1D x 9). […]

[8] = tested on: P388 leukemia; assay: In vivo antitumor activity in tumor-bearing mice, P388 leukemia (ip); conditions: for Body weight change on day 4 / MST (Median survival time) / T/C: P388 leukemia ip, CDF₁ mice, Q1D x 1; for T/C: significant if T/C ≧ 125%
Experimental: as §2

[9] = tested on: L1210 leukemia; assay: In vivo antitumor activity in tumor-bearing mice, L1210 leukemia (ip); conditions: for Body weight change on day 4 / MST (Median survival time) / T/C: L1210 leukemia ip, CDF₁ mice, Q1D x 1; for T/C: significant if T/C ≧ 125%
Experimental: as §2

[10] = Antimicrobial activity (no method given)

CCC(C)CC(C)CC(C)/C=C(\C)C1OC(O)(C(C)(O)C(=O)NC2C(=O)N3NCCCC3C(=O)N(O)CC(=O)N(C)CC(=O)NCC(=O)N(C)CC(=O)OC2C(C)C)CCC1OC (centres unmarked) [BU-3983T]
IC₅₀ ([1]; B16-F10 cells, 72 hours): 0.004 µg/mL
times more potent against B16-F10 than against HCT-116 ([1]; ratio of IC₅₀ values, B16-F10 vs HCT-116): 10 times
times more potent against B16-F10 than against Moser ([1]; ratio of IC₅₀ values, B16-F10 vs Moser): 100 times
IC₅₀ [2]: 0.04 µg/mL
IC₅₀ [3]: 0.4 µg/mL
IC₅₀ DNA [4]: 0.26 µg/mL
IC₅₀ RNA [5]: 0.29 µg/mL
IC₅₀ Protein ([6]; 4 hours + 60 minutes label): >1.0 µg/mL
inhibition of protein synthesis ([6]; at 1.0 µg/ml): only weak inhibition
Body weight change on day 5 ([7]; 0.031 mg/kg/day ip, Q1D x 9): +1.0 g
MST (Median survival time) ([7]; 0.031 mg/kg/day ip, Q1D x 9): 16.0 days
T/C ([7]; 0.031 mg/kg/day ip, Q1D x 9): 110%
Body weight change on day 5 ([7]; 0.063 mg/kg/day ip, Q1D x 9): +1.0 g
MST (Median survival time) ([7]; 0.063 mg/kg/day ip, Q1D x 9): 17.5 days
T/C ([7]; 0.063 mg/kg/day ip, Q1D x 9): 121%
Body weight change on day 5 ([7]; 0.063 mg/kg/day ip, Q4D x 3): +0.5 g
MST (Median survival time) ([7]; 0.063 mg/kg/day ip, Q4D x 3): 14.0 days
T/C ([7]; 0.063 mg/kg/day ip, Q4D x 3): 108%
Body weight change on day 5 ([7]; 0.13 mg/kg/day ip, Q1D x 1): +0.5 g
MST (Median survival time) ([7]; 0.13 mg/kg/day ip, Q1D x 1): 14.0 days
T/C ([7]; 0.13 mg/kg/day ip, Q1D x 1): 108%
Body weight change on day 5 ([7]; 0.13 mg/kg/day ip, Q1D x 9): -0.3 g
MST (Median survival time) ([7]; 0.13 mg/kg/day ip, Q1D x 9): 19.0 days
T/C ([7]; 0.13 mg/kg/day ip, Q1D x 9): 131*² %
Body weight change on day 5 ([7]; 0.13 mg/kg/day ip, Q4D x 3): +0.0 g
MST (Median survival time) ([7]; 0.13 mg/kg/day ip, Q4D x 3): 15.0 days
T/C ([7]; 0.13 mg/kg/day ip, Q4D x 3): 115%
Body weight change on day 5 ([7]; 0.25 mg/kg/day ip, Q1D x 1): 0.0 g
MST (Median survival time) ([7]; 0.25 mg/kg/day ip, Q1D x 1): 17.0 days
T/C ([7]; 0.25 mg/kg/day ip, Q1D x 1): 131*² %
Body weight change on day 5 ([7]; 0.25 mg/kg/day ip, Q1D x 9): -1.0 g
MST (Median survival time) ([7]; 0.25 mg/kg/day ip, Q1D x 9): 19.5 days
T/C ([7]; 0.25 mg/kg/day ip, Q1D x 9): 138*² %
Body weight change on day 5 ([7]; 0.25 mg/kg/day ip, Q4D x 3): 0.0 g
MST (Median survival time) ([7]; 0.25 mg/kg/day ip, Q4D x 3): 16.0 days
T/C ([7]; 0.25 mg/kg/day ip, Q4D x 3): 123%
Body weight change on day 5 ([7]; 0.5 mg/kg/day ip, Q1D x 1): -1.0 g
MST (Median survival time) ([7]; 0.5 mg/kg/day ip, Q1D x 1): 17.0 days
T/C ([7]; 0.5 mg/kg/day ip, Q1D x 1): 131*² %
Body weight change on day 5 ([7]; 0.5 mg/kg/day ip, Q1D x 9): -4.0 g
MST (Median survival time) ([7]; 0.5 mg/kg/day ip, Q1D x 9): 20.0 days
T/C ([7]; 0.5 mg/kg/day ip, Q1D x 9): 148*² %
Body weight change on day 5 ([7]; 0.5 mg/kg/day ip, Q4D x 3): -0.5 g
MST (Median survival time) ([7]; 0.5 mg/kg/day ip, Q4D x 3): 19.0 days
T/C ([7]; 0.5 mg/kg/day ip, Q4D x 3): 146*² %
Body weight change on day 5 ([7]; 1 mg/kg/day ip, Q1D x 1): -4.0 g
MST (Median survival time) ([7]; 1 mg/kg/day ip, Q1D x 1): 16.5 days
T/C ([7]; 1 mg/kg/day ip, Q1D x 1): 127*² %
MST (Median survival time) ([7]; 1 mg/kg/day ip, Q1D x 9): Tox
T/C ([7]; 1 mg/kg/day ip, Q1D x 9): Tox
Body weight change on day 5 ([7]; 1 mg/kg/day ip, Q4D x 3): -2.3 g
MST (Median survival time) ([7]; 1 mg/kg/day ip, Q4D x 3): 17.5 days
T/C ([7]; 1 mg/kg/day ip, Q4D x 3): 135*² %
Body weight change on day 5 ([7]; 2 mg/kg/day ip, Q1D x 1): -4.8 g
MST (Median survival time) ([7]; 2 mg/kg/day ip, Q1D x 1): 21.0 days
T/C ([7]; 2 mg/kg/day ip, Q1D x 1): 162*² %
Body weight change on day 5 ([7]; 2 mg/kg/day ip, Q4D x 3): -4.0 g
MST (Median survival time) ([7]; 2 mg/kg/day ip, Q4D x 3): 18.0 days
T/C ([7]; 2 mg/kg/day ip, Q4D x 3): 138*² %
Body weight change on day 5 ([7]; 4 mg/kg/day ip, Q1D x 1): -5.3 g
MST (Median survival time) ([7]; 4 mg/kg/day ip, Q1D x 1): 19.0 days
T/C ([7]; 4 mg/kg/day ip, Q1D x 1): 146*² %
Body weight change on day 5 ([7]; 8 mg/kg/day ip, Q1D x 1): -5.3 g
MST (Median survival time) ([7]; 8 mg/kg/day ip, Q1D x 1): 17.5 days
T/C ([7]; 8 mg/kg/day ip, Q1D x 1): 135*² %
maximum T/C ([7]; B16 melanoma, by various treatment schedules (Q1D x 1, Q4D x 3, Q1D x 9), ip): 146-162%
Body weight change on day 4 ([8]; 0.25 mg/kg/day ip): +0.3 g
MST (Median survival time) ([8]; 0.25 mg/kg/day ip): 11.0 days
T/C ([8]; 0.25 mg/kg/day ip): 110%
Body weight change on day 4 ([8]; 0.5 mg/kg/day ip): -0.5 g
MST (Median survival time) ([8]; 0.5 mg/kg/day ip): 10.0 days
T/C ([8]; 0.5 mg/kg/day ip): 100%
Body weight change on day 4 ([8]; 1 mg/kg/day ip): -1.5 g
MST (Median survival time) ([8]; 1 mg/kg/day ip): 10.0 days
T/C ([8]; 1 mg/kg/day ip): 100%
Body weight change on day 4 ([8]; 2 mg/kg/day ip): -2.0 g
MST (Median survival time) ([8]; 2 mg/kg/day ip): 10.0 days
T/C ([8]; 2 mg/kg/day ip): 100%
Body weight change on day 4 ([8]; 4 mg/kg/day ip): -2.3 g
MST (Median survival time) ([8]; 4 mg/kg/day ip): 11.0 days
T/C ([8]; 4 mg/kg/day ip): 110%
Body weight change on day 4 ([8]; 8 mg/kg/day ip): -2.5 g
MST (Median survival time) ([8]; 8 mg/kg/day ip): 11.5 days
T/C ([8]; 8 mg/kg/day ip): 115%
prolongation of lifespan ([8]; P388 leukemia system, ip): no significant prolongation of lifespan
Body weight change on day 4 ([9]; 0.25 mg/kg/day ip): +0.8 g
MST (Median survival time) ([9]; 0.25 mg/kg/day ip): 8.0 days
T/C ([9]; 0.25 mg/kg/day ip): 100%
Body weight change on day 4 ([9]; 0.5 mg/kg/day ip): -0.5 g
MST (Median survival time) ([9]; 0.5 mg/kg/day ip): 8.0 days
T/C ([9]; 0.5 mg/kg/day ip): 100%
Body weight change on day 4 ([9]; 1 mg/kg/day ip): -2.0 g
MST (Median survival time) ([9]; 1 mg/kg/day ip): 8.0 days
T/C ([9]; 1 mg/kg/day ip): 100%
Body weight change on day 4 ([9]; 2 mg/kg/day ip): -2.0 g
MST (Median survival time) ([9]; 2 mg/kg/day ip): 9.0 days
T/C ([9]; 2 mg/kg/day ip): 113%
Body weight change on day 4 ([9]; 4 mg/kg/day ip): -2.5 g
MST (Median survival time) ([9]; 4 mg/kg/day ip): 9.5 days
T/C ([9]; 4 mg/kg/day ip): 119%
MST (Median survival time) ([9]; 8 mg/kg/day ip): Tox
T/C ([9]; 8 mg/kg/day ip): Tox
prolongation of lifespan ([9]; L1210 leukemia system, ip): no significant prolongation of lifespan
antimicrobial activity [10]: weak
solubility (in acetonitrile, methanol, chloroform, dimethyl sulfoxide and dimethylformamide): readily soluble
solubility (in n-butanol, ethanol and ethyl acetate): slightly soluble
solubility (in n-hexane and water): practically insoluble

Reference: EP0431323A1, “Antitumor antibiotic BU-3983T” (priority 1989, dated 1991)
